In ChEMBL document CHEMBL1201862, “PubChem BioAssay data set” (2004):
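Step 1: Grow cells in 96-well plates. Step 2: Expose to compound for 48 hours at 5 concentrations. Step 3: Interpolate endpoints linearly; if unreached, use highest concentration. The concentration for 50% growth inhibition is given as GI50.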 Activity calls are given as the source filed them. No stated cut-off is given here; in the data, active = GI50 up to about 1.1 µM and inactive = higher.

What was measured:
Test in all cases: NCI-60 cell line screen, 48 h
Hs-578T = test system: Hs-578T
HCT-116 = test system: HCT-116
UO-31 = test system: UO-31
NCI-H226 = test system: NCI-H226
SF-539 = test system: SF-539
KM12 = test system: KM12
RXF 393 = test system: RXF 393
SNB-75 = test system: SNB-75
SR = test system: SR
Malme-3M = test system: Malme-3M
UACC-257 = test system: UACC-257
SK-OV-3 = test system: SK-OV-3
SK-MEL-5 = test system: SK-MEL-5
CAKI-1 = test system: CAKI-1
RPMI-8226 = test system: RPMI-8226
TK-10 = test system: TK-10
NCI/ADR-RES = test system: NCI/ADR-RES
M14 = test system: M14
ACHN = test system: ACHN

Row | Compound | GI50 (Hs-578T) | GI50 (HCT-116) | GI50 (UO-31) | GI50 (NCI-H226) | GI50 (SF-539) | GI50 (KM12) | GI50 (RXF 393) | GI50 (SNB-75) | GI50 (SR) | GI50 (Malme-3M) | GI50 (UACC-257) | GI50 (SK-OV-3) | GI50 (SK-MEL-5) | GI50 (CAKI-1) | GI50 (RPMI-8226) | GI50 (TK-10) | GI50 (NCI/ADR-RES) | GI50 (M14) | GI50 (ACHN)
1 | CSc1ccc2c(c1)C(N1CCN(C)CC1)Cc1ccccc1S2 (stereo not drawn) | 4.4 µM (inactive) | 3.84 µM (inactive) | 3.63 µM (inactive) | 7.8 µM (inactive) | 6.11 µM (inactive) | 2.62 µM (inactive) | 2.81 µM (inactive) | < 0.01 µM (active) | 2.3 µM (inactive) | 1.71 µM (inactive) | 2.07 µM (inactive) | 13.9 µM (inactive) | 1.82 µM (inactive) | 3.65 µM (inactive) | 1.91 µM (inactive) | 3.35 µM (inactive) | 5.56 µM (inactive) | 1.95 µM (inactive) | 3.25 µM (inactive)
2 | Nc1nc(Cl)cc(Oc2ccc(Cl)cc2)n1 | > 53.7 µM (inactive) | > 57.9 µM (inactive) | 29.9 µM (inactive) | > 100 µM (inactive) | > 50.7 µM (inactive) | > 100 µM (inactive) | > 100 µM (inactive) | > 100 µM (inactive) | > 80.4 µM (inactive) | 34.3 µM (inactive) | 38.5 µM (inactive) | > 55.2 µM (inactive) | > 56.6 µM (inactive) | 44.6 µM (inactive) | > 55.6 µM (inactive) | 28.2 µM (inactive) | > 70.3 µM (inactive) | > 57 µM (inactive) | 31.4 µM (inactive)
3 | O=C(/C=C/c1cccc(Br)c1)c1ccc(Cl)cc1 | 22.7 µM (inactive) | 5.35 µM (inactive) | 15.5 µM (inactive) | 18.8 µM (inactive) | 16.6 µM (inactive) | 11.8 µM (inactive) | 17.8 µM (inactive) | 13.6 µM (inactive) | 2.42 µM (inactive) | 14 µM (inactive) | 17.1 µM (inactive) | 21.1 µM (inactive) | 14.2 µM (inactive) | 14 µM (inactive) | 2.08 µM (inactive) | 13 µM (inactive) | 21.7 µM (inactive) | 14.6 µM (inactive) | 16.8 µM (inactive)
4 | CC1CCCC(C(=O)CC2CC(=O)NC(=O)C2)C1=O (stereo not drawn) | > 100 µM (inactive) | > 100 µM (inactive) | > 100 µM (inactive) | > 100 µM (inactive) | > 100 µM (inactive) | > 100 µM (inactive) | > 100 µM (inactive) | > 100 µM (inactive) | > 100 µM (inactive) | > 100 µM (inactive) | > 100 µM (inactive) | > 100 µM (inactive) | > 100 µM (inactive) | > 100 µM (inactive) | > 100 µM (inactive) | > 100 µM (inactive) | > 100 µM (inactive) | > 100 µM (inactive) | > 100 µM (inactive)
5 | C/C=C/C(C/C=C(\C)CO[Si](C)(C)C(C)(C)C)O[Si](C)(C)C(C)(C)C (stereo not drawn) | > 100 µM (inactive) | > 100 µM (inactive) | > 100 µM (inactive) | > 100 µM (inactive) | > 100 µM (inactive) | > 100 µM (inactive) | > 100 µM (inactive) | > 100 µM (inactive) | > 100 µM (inactive) | > 100 µM (inactive) | > 100 µM (inactive) | > 100 µM (inactive) | > 100 µM (inactive) | > 100 µM (inactive) | > 100 µM (inactive) | > 100 µM (inactive) | > 100 µM (inactive) | > 100 µM (inactive) | > 100 µM (inactive)
6 | Cn1c(=O)nc2n(CCO)c(-c3ccccc3)c(-c3ccccc3)nc-2c1=O | 86.3 µM (inactive) | > 100 µM (inactive) | > 100 µM (inactive) | > 100 µM (inactive) | > 100 µM (inactive) | > 100 µM (inactive) | > 100 µM (inactive) | > 100 µM (inactive) | > 100 µM (inactive) | > 100 µM (inactive) | > 100 µM (inactive) | > 100 µM (inactive) | > 100 µM (inactive) | > 100 µM (inactive) | > 100 µM (inactive) | > 100 µM (inactive) | > 100 µM (inactive) | > 100 µM (inactive) | > 100 µM (inactive)
7 | Oc1cc(F)cc2cccnc12 | 3.68 µM (inactive) | 1.89 µM (inactive) | 0.652 µM (active) | 3.54 µM (inactive) | 1.34 µM (inactive) | 1.3 µM (inactive) | 3.75 µM (inactive) | 11.8 µM (inactive) | 0.182 µM (active) | 0.628 µM (active) | 0.402 µM (active) | 4.45 µM (inactive) | 0.998 µM (active) | 3.96 µM (inactive) | 0.259 µM (active) | 17.9 µM (inactive) | 0.281 µM (active) | 1.02 µM (active) | 0.933 µM (active)
